According to patent US20110201628A1, “HETEROCYCLIC JAK KINASE INHIBITORS” (priority 2008, published 2011):

Target: T1, C-terminal His6-tagged, recombinant, human JAK2, amino acids 808-end (Homo sapiens, UniProt O60674)
T1 construct: His6 (C); purchased Upstate Biotechnology MA; host or cells: baculovirus in Sf21 cells
Test: JAK2 kinase Alphascreen assay (Method 1)
Type: biochemical
Conditions: Alphascreen, 150 pM JAK2 enzyme, 5 mM ATP, 80 nM Tyk2 peptide, 60 minutes room temperature; read-out: IC50 Assay (Method 1)
Procedure: To measure JAK2 kinase activity, a commercially available purified enzyme may be used. […] After incubation of the kinase with a biotinylated substrate and adenosine triphosphate (ATP) for 60 minutes at room temperature, the kinase reaction may be stopped by the addition of 30 mM ethylenediaminetetraacetic acid (EDTA). The reaction may be performed in 384 well microtitre plates and the reaction products may be detected with the addition of streptavidin coated Donor Beads and phosphotyrosine-specific antibodies coated Acceptor Beads using the EnVision Multilabel Plate Reader after an overnight incubation at room temperature. “Tween 20” is a registered trademark of ICI Americas, Inc.

T1 sequence (O60674 808-1132 limits assumed): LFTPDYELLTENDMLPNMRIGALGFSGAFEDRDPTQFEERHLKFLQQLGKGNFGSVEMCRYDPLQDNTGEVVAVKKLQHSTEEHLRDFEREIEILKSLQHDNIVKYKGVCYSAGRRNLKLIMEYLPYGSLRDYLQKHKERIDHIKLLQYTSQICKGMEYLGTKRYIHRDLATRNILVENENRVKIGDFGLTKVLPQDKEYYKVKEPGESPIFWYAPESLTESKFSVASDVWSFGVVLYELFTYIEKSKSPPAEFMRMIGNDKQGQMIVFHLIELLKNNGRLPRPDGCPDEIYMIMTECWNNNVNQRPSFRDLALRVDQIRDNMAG

Compared with `C[C@H](Nc1nc(Nc2cn(C)cn2)c2ccc(NC3CC3)nc2n1)c1ncc(F)cn1` [Example 36, N^7-Cyclopropyl-N^2-[(1S)-1-(5-fluoropyrimidin-2-yl)ethyl]-N^4-(1-methyl-1H-imidazol-4-yl)pyrido[2,3-d]pyrimidine-2,4,7-triamine], `C[C@H](Nc1nc(Nc2cn(C)cn2)c2cn[nH]c2n1)c1ncc(F)cn1` [Example 46, N^6-[(1S)-1-(5-Fluoropyrimidin-2-yl)ethyl]-N^4-(1-methyl-1H-imidazol-4-yl)-1H-pyrazolo[3,4-d]pyrimidine-4,6-diamine] is 7-fold higher in IC50: 3 nM for the first, 21 nM for the second. The first is the more potent here.

`CC(Nc1nc(Nc2cn(C)cn2)c2ccncc2n1)c1ncc(F)cc1F` (single isomer, unassigned) [Example 43(a), N^2-[1-(3,5-Difluoropyridin-2-yl)ethyl]-N^4-(1-methyl-1H-imidazol-4-yl)pyrido[3,4-d]pyrimidine-2,4-diamine] and `CC(Nc1nc(Nc2cn(C)cn2)c2cccnc2n1)c1ncc(F)cc1F` (single isomer, unassigned) [Example 12(a), N^2-[1-(3,5-Difluoropyridin-2-yl)ethyl]-N^4-(1-methyl-1H-imidazol-4-yl)pyrido[2,3-d]pyrimidine-2,4-diamine] cannot be ordered by IC50: less than 3 nM for the first, less than 3 nM for the second.

First: C[C@H](Nc1nc(Nc2cn(C)cn2)c2cnn(CCO)c2n1)c1ncc(F)cn1 [Example 15, 2-(6-{[(1S)-1-(5-Fluoropyrimidin-2-yl)ethyl]amino}-4-[(1-methyl-1H-imidazol-4-yl)amino]-1H-pyrazolo[3,4-d]pyrimidin-1-yl)ethanol]
Second: CC(Nc1nc(Nc2cn(C)cn2)c2ccsc2n1)c1ncc(F)cn1 (single isomer, unassigned) [Example 1(b), N^2-[1-(5-Fluoropyrimidin-2-yl)ethyl]-N^4-(1-methyl-1H-imidazol-4-yl)thieno[2,3-d]pyrimidine-2,4-diamine]
The IC50 of the first is higher: 3 nM for the first, less than 3 nM for the second.

Going from `CC(Nc1nc2c(c(Nc3cn(C)cn3)n1)CNC2)c1ncc(F)cn1` (single isomer, unassigned) [Example 18(b), N^2-[1-(5-Fluoropyrimidin-2-yl)ethyl]-N^4-(1-methyl-1H-imidazol-4-yl)-6,7-dihydro-5H-pyrrolo[3,4-d]pyrimidine-2,4-diamine] to `CC(Nc1nc2c(c(Nc3cn(C)cn3)n1)CNCC2)c1ncc(F)cn1` (single isomer, unassigned) [17(a), N^2-[1-(5-Fluoropyrimidin-2-yl)ethyl]-N^4-(1-methyl-1H-imidazol-4-yl)-5,6,7,8-tetrahydropyrido[4,3-d]pyrimidine-2,4-diamine], the IC50 falls from 450 nM to 220 nM (2-fold). The second is the more potent here.

Going from `COCC(Nc1nc(Nc2cn(C)cn2)c2cnn(C)c2n1)c1ncc(F)cc1F` (single isomer, unassigned) [Example 13(b), N^6-[1-(3,5-Difluoropyridin-2-yl)-2-methoxyethyl]-1-methyl-N^4-(1-methyl-1H-imidazol-4-yl)-1H-pyrazolo[3,4-d]pyrimidine-4,6-diamine] to `COc1ccc2nc(NC(C)c3ncc(F)cc3F)nc(Nc3cn(C)cn3)c2c1` (racemic) [Example 29, N^2-[1-(3,5-Difluoropyridin-2-yl)ethyl]-6-methoxy-N^4-(1-methyl-1H-imidazol-4-yl)quinazoline-2,4-diamine], the IC50 rises from less than 3 nM to 500 nM. The first is the more potent here.

Compared with `COCC(Nc1nc(Nc2cn(C)cn2)c2cnn(C)c2n1)c1ncc(F)cc1F` (single isomer, unassigned) [Example 13(a)], `CC(Nc1nc(Nc2cn(C)cn2)c2ccc(N3CCOCC3)nc2n1)c1ncc(F)cc1F` (single isomer, unassigned) [Example 40(a), N^2-[1-(3,5-Difluoropyridin-2-yl)ethyl]-N^4-(1-methyl-1H-imidazol-4-yl)-7-morpholin-4-ylpyrido[2,3-d]pyrimidine-2,4-diamine] is 6.6-fold lower in IC50: 3240 nM for the first, 490 nM for the second. The second is the more potent here.

`C[C@H](Nc1ccc2c(Nc3cn(C)cn3)nc(N[C@@H](C)c3ncc(F)cn3)nc2n1)c1ncc(F)cn1` [Example 39, N^2,N^7-bis[(1S)-1-(5-fluoropyrimidin-2-yl)ethyl]-N^4-(1-methyl-1H-imidazol-4-yl)pyrido[2,3-d]pyrimidine-2,4,7-triamine] and `CC(Nc1nc(Nc2cn(C)cn2)c2ccccc2n1)c1ncc(F)cn1` (single isomer, unassigned) [Example 45(b), N^2-[1-(5-Fluoropyrimidin-2-yl)ethyl]-N^4-(1-methyl-1H-imidazol-4-yl)quinazoline-2,4-diamine] are the same in IC50: 3 nM for the first, 3 nM for the second.

First: Cc1ccc(S(=O)(=O)n2ccc3c(Nc4cn(C)cn4)nc(N[C@@H](C)c4ncc(F)cn4)nc32)cc1 [Example 3, N^2-[(1S)-1-(5-Fluoropyrimidin-2-yl)ethyl]-N^4-(1-methyl-1H-imidazol-4-yl)-7-[(4-methylphenyl)sulfonyl]-7H-pyrrolo[2,3-d]pyrimidine-2,4-diamine]
Second: CC(Nc1nc(Nc2cn(C)cn2)c2ccccc2n1)c1ncc(F)cn1 (single isomer, unassigned) [Example 45(a), N^2-[1-(5-Fluoropyrimidin-2-yl)ethyl]-N^4-(1-methyl-1H-imidazol-4-yl)quinazoline-2,4-diamine]
The IC50 of the first is 3.3-fold higher: 213 nM for the first, 64 nM for the second. The second is the more potent here.

First: CC(Nc1nc2c(c(Nc3cn(C)cn3)n1)CNC2)c1ncc(F)cn1 (single isomer, unassigned) [Example 18(a), N^2-[1-(5-Fluoropyrimidin-2-yl)ethyl]-N^4-(1-methyl-1H-imidazol-4-yl)-6,7-dihydro-5H-pyrrolo[3,4-d]pyrimidine-2,4-diamine]
Second: CC(Nc1nc2c(c(Nc3cn(C)cn3)n1)CCC2)c1ncc(F)cn1 (single isomer, unassigned) [Example 8(b), N^2-[1-(5-Fluoropyrimidin-2-yl)ethyl]-N^4-(1-methyl-1H-imidazol-4-yl)-6,7-dihydro-5H-cyclopenta[d]pyrimidine-2,4-diamine]
The IC50 of the first is higher: 4300 nM for the first, less than 3 nM for the second.

`C[C@H](Nc1nc(Nc2cn(C)cn2)c2[nH]ccc2n1)c1ncc(F)cn1` [Example 6, N^2-[(1S)-1-(5-Fluoropyrimidin-2-yl)ethyl]-N^4-(1-methyl-1H-imidazol-4-yl)-5H-pyrrolo[3,2-d]pyrimidine-2,4-diamine] and `C[C@H](Nc1nc(Nc2cn(C)cn2)c2ccccc2n1)c1ncc(F)cn1` [Example 45, N^2-[(1S)-1-(5-Fluoropyrimidin-2-yl)ethyl]-N^4-(1-methyl-1H-imidazol-4-yl)quinazoline-2,4-diamine] cannot be ordered by IC50: less than 3 nM for the first, less than 3 nM for the second.

First: CC(Nc1nc(Nc2cn(C)cn2)c2ccc(N3CCOCC3)nc2n1)c1ncc(F)cc1F (single isomer, unassigned) [Example 40(b), N^2-[1-(3,5-Difluoropyridin-2-yl)ethyl]-N^4-(1-methyl-1H-imidazol-4-yl)-7-morpholin-4-ylpyrido[2,3-d]pyrimidine-2,4-diamine]
Second: CC(Nc1nc(Nc2cn(C)cn2)c2nccnc2n1)c1ncc(F)cn1 (single isomer, unassigned) [Example 10(b), N^2-[1-(5-Fluoropyrimidin-2-yl)ethyl]-N^4-(1-methyl-1H-imidazol-4-yl)pteridine-2,4-diamine]
The IC50 of the first is lower: less than 3 nM for the first, 200 nM for the second. The first is the more potent here.

Same assay, conditions: IC50 Assay (Method 1)

For `CC(Nc1nc(Nc2cn(C)cn2)c2cc(F)cnc2n1)c1ncc(F)cn1` (single isomer, unassigned) [Example 38(b), 6-Fluoro-N^2-[1-(5-fluoropyrimidin-2-yl)ethyl]-N^4-(1-methyl-1H-imidazol-4-yl)pyrido[2,3-d]pyrimidine-2,4-diamine], the IC50 was 490 nM.
